Measurements reported in patent US11634381B2, “RUNX2 transcription factor inhibitors and uses thereof” (University of Maryland, Baltimore, priority 2015, dated 2023).

Experiments:
[1] = test system: MCF7-tet-off or MDA-231 cells; test: Calcein-AM viability assay; type: cell-based, human; conditions: over 24 hrs
Experimental: In FIGS. 9A-9C compound 1 was added at the initial day of cell plating. Tumorspheres of MCF7-tet-off (−Doxy) cells were photographed for 18 days at ×40 and ×100 magnifications (FIG. 9A), and counted at the final day at ×40 magnification (FIG. 9C). Tumorspheres of MDA-231, MDA-468 and MCF7 cells at day 7 are shown (FIG. 9B). Spheres of MDA-231 and MCF7 cells were counted at day 18 with ×20 magnification. Spheres of vehicle-treated MDA-468 cells were counted at day 7 with ×20 magnification as they became fragile and disrupted 7 days after incubation. In FIG. 9C sphere number (No.) was counted from 9 fields per well. Data presented as mean±SD. Experiments were done in triplicate and repeated three times. *, P<0.05 compared to +Doxy; ^#, P<0.05 compared to −Doxy with vehicle treatment. Box, RUNX2 induction upon Doxy removal from MCF7-tet-off cells (−D). In FIG. 9D to ensure robust sphere formation, compound 1 was added 4 days after cell plating (D4+), and cells were further incubated for 5 days (D5) or for 7 days (D7). In FIG. 9E the cellular invasive ability of MCF7-tet-off cells (left) was evaluated by the 96 Well BME Cell Invasion Assay and xCELLigence systems in vitro, respectively. In parallel, similar amount of cells were plated in separate plates and treated with compound 1 for 24 hrs, and Calcein-AM assay was performed (right). […]

[2] = test system: mammary tumors; test: MMTV-PyMT transgenic mouse model; type: in vivo, MMTV-PyMT mice
Experimental: For the MMTV polyoma middle T antigen (PyMT) mouse model, female mice were purchased from Jackson Laboratory. As mice developed first palpable mammary tumors after 5 weeks of age, mice were randomly assigned to 4 treatment groups at 6 weeks of age and received i.p. injections of compound 1 (1, 5 and 20 mg/kg/group) or equivalent volumes of vehicle (10% DMSO/90% PBS) (200 μl) twice a week. Palpable tumors were monitored every 1 to 2 days until 12 weeks of age to determine tumor incidence (number of tumors per mouse) and onset (the age of palpable tumors). Tumor weight was quantified at the final day after mice were euthanized and tumors were excised. Tumor volume [(length×width^2)/2] was measured by caliper.

[3] = test system: TAZ; test: Nuclear TAZ levels by Western blot; type: cell-based, human
Experimental: MCF7 cells were grown to subconfluence in the presence or absence of doxycycline for 72 hr in full media as described above. Cells were then treated in minimal DMEM (Sigma, D5030) containing 0.1% BSA, 1% L-glutamine, 2% Tet-Approved FBS, and 1 mM glucose for 16 hours followed by treatment with 2 ng/mL TGFβ (R&D Systems, 240-B-002) for 48 hours in the presence or absence of EGTA to examine sE-Cad expression levels, TAZ localization, and HER2 expression levels. Cells were washed with PBS and scraped from plates. Cytoplasmic and nuclear lysates were obtained using the Low/High Salt extraction method. Cytoplasmic extracts were obtained by resuspending cells in NP40 containing Hypotonic Buffer (10 mM HEPES pH 7.4, 1.5 mM MgCl2, 10 mM KCI, 0.5% NP40) followed by a 30 min incubation on ice and centrifiugation. Nuclear extracts were obtained by resuspending the nuclear pellet in an equal volume of low salt buffer (10 mM HEPES, 25% glycerol, 1.5 mM MgCl2, 20 mM KCI, 0.2 mM EDTA) followed by high salt buffer (10 mM HEPES, 25% glycerol, 1.5 mM MgCl2, 800 mM KCl, 0.2 mM EDTA) followed by vortexing, 30 min incubation on ice, another vortex, and centrifugation. Samples were resolved on 4-12% Bis-Tris polyacrylamide gradient gels (Invitrogen) and transferred to PVDF membranes (Millipore). Membranes were probed with antibodies listed below followed by development with enhanced ECL (Millipore). […] Protein levels were normalized to actin and quantified using NIH Image-J software.
MCF7 Tet.OFF cells were pretreated in the absence or presence of doxycycline for 3 days. […] Nuclear and cytoplasmic extracts were obtained using High/Low salt extraction method and protein levels analyzed by Western blot (see above).

[4] = test system: non-malignant cells (MCF10A, IEC-6, GES-1, C2C12); test: Cell growth assay in non-malignant cells; type: cell-based, human, rat, murine; conditions: 0˜100 μM, 24˜72 hrs
Experimental: Cells wereplated on 96-well (30,000 cells/well) or 24-well plates (50,000 cells/well). After CADD522 (0˜100 μM) addition, cells were incubated for 24˜72 hrs. Cells were stained with crystal violet (0.5% in Methanol:Acetic Acid=3:1) and washed with PBS. Crystal violet was solubilized in DMSO and measured in a microplate reader at 592 nm.

## O=C(O)C1C2C=CC(C2)C1C(=O)Nc1ccc(Cl)c(Cl)c1 (stereo not drawn) [compound 1, 3-(N-(3,4-dichlorophenyl)carbamoyl)-5-norbornene-2-carboxylic acid]
[1]
  viability: little effect
[2]; 1 mg/Kg
  tumor incidence per mouse at the final day (mean±SEM): 4.14±0.88
[2]; 1 mg/kg
  tumor onset, Frequency of mode: 8
  tumor onset, Mode: 43
  tumor onset, range: 15˜45
[2]; 5 mg/Kg
  mice with less than 3 tumors: 40%
  tumor incidence per mouse at the final day (mean±SEM): 3.05±2.57
[2]; 5 mg/kg
  tumor onset, Frequency of mode: 11
  tumor onset, Mode: 43
  tumor onset, range: 1˜45
[2]; 20 mg/Kg
  fraction of mice with over 6 tumors: no mice
  mice with less than 3 tumors: 55%
  tumor incidence per mouse at the final day (mean±SEM): 2.57±0.72
[2]; 20 mg/kg
  tumor onset, Frequency of mode: 9
  tumor onset, Mode: 40
  tumor onset, range: 22˜45
[2]; 1, 5, 20 mg/Kg
  tumor weight: reduction
[2]; IHC
  staining of Ki67 in tumor sections versus control mice: much weaker
[2]; i.p., up to 20 mg/kg, 45 days
  onset of the tumors: significantly delayed
[2]; up to 20 mg/kg, MMTV-PyMT mice
  body weight and general health: did not significantly decrease body weight
[3]; HCC1428 cells expressing endogenous RUNX2
  reduction in nuclear TAZ levels compared to vehicle: 80%
[3]; RUNX2 negative cells (doxycycline +), over 72 hr
  nuclear TAZ levels: no affect
[3]; RUNX2 positive MCF7 cells (doxycycline -), 50 μM, within 24 hr
  TAZ nuclear levels: lowered
[4]
  sensitivity of non-malignant cells versus BC cell lines: much lower
